Tests used:
[1] = Cytotoxicity against mouse R7T1 cells assessed as reduction in cell viability; assay type: functional
[2] = Selectivity ratio of CC50 for mouse R7T1 cells to ECmin for mouse pancreatic islet cells; assay type: toxicity; conditions: R7T1 cells (CC50) and pancreatic islet cells (ECmin)
[3] = Induction of rat Pancreatic beta cell proliferation at 1 uM assessed as increase in fold chain after 6 days in presence of EdU incorporation by Cell-Titer Glo assay; assay type: functional; conditions: time 6 day
[4] = biological target: Glycogen synthase kinase-3 beta (Homo sapiens, UniProt P49841); test: Inhibition of GSK3beta (unknown origin)
Chain of Glycogen synthase kinase-3 beta (P49841 whole entry): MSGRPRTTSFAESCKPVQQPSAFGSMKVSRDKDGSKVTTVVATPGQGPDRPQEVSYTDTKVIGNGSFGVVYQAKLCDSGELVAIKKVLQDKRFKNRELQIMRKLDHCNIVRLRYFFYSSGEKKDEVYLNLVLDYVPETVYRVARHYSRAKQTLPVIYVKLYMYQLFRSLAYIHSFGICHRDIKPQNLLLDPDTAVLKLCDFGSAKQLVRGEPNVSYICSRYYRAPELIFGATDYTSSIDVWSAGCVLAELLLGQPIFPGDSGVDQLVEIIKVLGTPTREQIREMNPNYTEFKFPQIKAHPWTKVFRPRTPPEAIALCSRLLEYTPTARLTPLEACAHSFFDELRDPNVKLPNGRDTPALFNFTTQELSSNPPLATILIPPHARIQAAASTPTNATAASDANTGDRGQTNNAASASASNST

[5] = Synergistic […] activity against human Pancreatic beta cell proliferation in presence of GLP1 at 5 nM by Ki-67 immuno labelling assay; assay type: functional
[6] = Synergistic […] activity against human Pancreatic beta cell proliferation in NSG mouse model at 0.5 ug/kg by immuno labelling assay; assay type: functional
[7] = Induction of human Pancreatic beta cell proliferation at 50 mg/kg measured after 5 days in presence of EdU incorporation by Cell-Titer Glo assay; assay type: functional; conditions: 120 h
[8] = Volume of distribution at steady state in mouse, po; assay type: ADME; conditions: in vivo
[9] = biological target: Dual specificity protein kinase CLK1/CLK2/CLK4 (Homo sapiens) (UniProt Q9HAZ1+P49759+P49760); test: Inhibition of CLK1/2/4 (unknown origin) relative to control; assay type: protein assay; conditions: concentration not given here
Chain of Dual specificity protein kinase CLK1/CLK2/CLK4 (Homo sapiens) (P49759 whole entry, looked up): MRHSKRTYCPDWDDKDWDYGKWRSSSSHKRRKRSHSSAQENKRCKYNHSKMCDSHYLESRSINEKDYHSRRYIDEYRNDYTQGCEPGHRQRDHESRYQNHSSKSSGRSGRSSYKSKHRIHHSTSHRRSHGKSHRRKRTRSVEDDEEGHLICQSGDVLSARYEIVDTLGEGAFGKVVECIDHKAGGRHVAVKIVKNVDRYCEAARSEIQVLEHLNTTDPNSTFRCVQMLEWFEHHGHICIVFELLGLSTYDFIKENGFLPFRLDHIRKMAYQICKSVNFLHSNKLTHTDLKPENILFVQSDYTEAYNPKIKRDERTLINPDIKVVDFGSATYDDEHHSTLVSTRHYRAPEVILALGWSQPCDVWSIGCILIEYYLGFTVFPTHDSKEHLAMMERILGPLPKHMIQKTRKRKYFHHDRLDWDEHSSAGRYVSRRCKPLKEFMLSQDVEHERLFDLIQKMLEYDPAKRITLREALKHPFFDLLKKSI
Chain of Dual specificity protein kinase CLK1/CLK2/CLK4 (Homo sapiens) (P49760 whole entry, looked up): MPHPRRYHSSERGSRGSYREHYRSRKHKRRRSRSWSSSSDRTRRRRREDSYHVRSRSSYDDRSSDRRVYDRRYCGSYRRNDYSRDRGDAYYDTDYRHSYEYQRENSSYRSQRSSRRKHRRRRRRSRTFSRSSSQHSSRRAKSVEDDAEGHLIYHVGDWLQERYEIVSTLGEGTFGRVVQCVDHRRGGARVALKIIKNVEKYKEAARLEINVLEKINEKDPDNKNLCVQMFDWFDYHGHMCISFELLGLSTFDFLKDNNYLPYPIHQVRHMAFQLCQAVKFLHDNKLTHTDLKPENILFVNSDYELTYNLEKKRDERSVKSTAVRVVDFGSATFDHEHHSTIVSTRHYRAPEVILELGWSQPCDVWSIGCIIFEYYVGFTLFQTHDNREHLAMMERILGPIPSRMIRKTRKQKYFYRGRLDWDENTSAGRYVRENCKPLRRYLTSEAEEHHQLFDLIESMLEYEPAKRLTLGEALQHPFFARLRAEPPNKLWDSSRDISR
Chain of Dual specificity protein kinase CLK1/CLK2/CLK4 (Homo sapiens) (Q9HAZ1 whole entry, looked up): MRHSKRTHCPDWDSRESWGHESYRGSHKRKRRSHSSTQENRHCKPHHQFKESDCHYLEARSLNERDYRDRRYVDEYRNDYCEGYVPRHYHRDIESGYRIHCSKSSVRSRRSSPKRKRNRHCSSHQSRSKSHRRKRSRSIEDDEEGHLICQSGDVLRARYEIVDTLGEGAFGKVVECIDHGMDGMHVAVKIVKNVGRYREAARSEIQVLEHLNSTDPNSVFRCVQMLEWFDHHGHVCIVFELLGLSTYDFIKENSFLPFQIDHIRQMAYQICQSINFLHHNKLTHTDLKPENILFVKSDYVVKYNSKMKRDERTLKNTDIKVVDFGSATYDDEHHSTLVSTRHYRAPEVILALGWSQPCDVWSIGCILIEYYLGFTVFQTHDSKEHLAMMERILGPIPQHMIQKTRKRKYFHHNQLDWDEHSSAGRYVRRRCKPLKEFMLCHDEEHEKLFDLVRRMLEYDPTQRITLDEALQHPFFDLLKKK

[10] = AUC (0 to infinity) in mouse at 1 mg/kg, po; assay type: ADME, organism-based; set-up: dose 1 mg/kg, route po; conditions: in vivo

**Q.** With CCOC(=O)c1cnc2ccc(-c3ccncc3)nc2c1N[C@H]1CC[C@H](CN2CCOCC2)CC1 as the compound, how does the Emin [1] read?
**A.** The Emin was 3.3 nM.

**Q.** And the selectivity ratio [2]?
**A.** Its selectivity ratio is 143.

**Q.** For Nc1ncnc2c1c(I)cn2[C@@H]1O[C@H](CO)[C@@H](O)[C@H]1O [IODOTUBERCIDIN], which “fold change (FC)” value [3] is on record?
**A.** Its value is 10.

**Q.** With COc1ccc2c(c1)[nH]c1c(CO)nccc12 as the compound, how does the IC50 [4] read?
**A.** Its IC50 is > 8300 nM.

**Q.** With COc1ccc2c(c1)[nH]c1c(C)nccc12 [HARMINE] as the compound, how does the Activity [5] read?
**A.** The Activity was 5%.

**Q.** What about the Activity [6] of the same compound?
**A.** The Activity was 0.8%.

**Q.** For Nc1ncc(-c2ccccc2)nc1C(=O)Nc1cnccc1N1CCC(C(=O)O)CC1, which EC50 [7] is on record?
**A.** Its EC50 is 0.76 nM.

**Q.** Which results are given for CCOC(=O)c1cnc2ccc(-c3cc(Cl)c(O)c(Cl)c3)nc2c1NC1CCN(C)CC1?
**A.** Emin [1]: 10 nM; selectivity ratio [2]: 117

**Q.** Which Vdss [8] does the source give for CCN1CCN(C(=O)Nc2cc(-c3cn(C4CCOCC4)c4cnccc34)ccn2)CC1 here?
**A.** Its Vdss is 11 L/kg.

**Q.** And the inhibition [9]?
**A.** The inhibition was 90%.

**Q.** And the AUC [10]?
**A.** The AUC was 3.27 µM·h.

**Q.** For CC(C)Oc1ccc(F)c(-c2cnc(N)c(C(=O)Nc3cnccc3N3CCCC(C(=O)O)C3)n2)c1 (centres undefined), which Emin [1] is on record?
**A.** The Emin was <100 nM.

**Q.** For CCOC(=O)c1cnc2ccc(-c3ccncc3)nc2c1N[C@H]1CC[C@H](CN(C)C)CC1, which selectivity ratio [2] is on record?
**A.** Its selectivity ratio is 259.
